Literature values as cited in patent US20030216337A1, “Composition and imaging methods for pharmacokinetic and pharmacodynamic evaluation of therapeutic delivery system” (priority 2002, published 2003).

half-life (in humans, unincorporated IUdR / resulting compound): less than minutes
SMILES: O=c1[nH]c(=O)n([C@H]2C[C@H](O)[C@@H](CO)O2)cc1I [IUdR, 5-Iodo-2′-deoxyuridine]
catabolism of unincorporated IUdR (unincorporated into DNA): rapidly catabolized to iodouracil and/or dehalogenated
